What all share (type): cell-based
Assay [1] has as its system PC9 cells. As to the kind of experiment: Apoptosis by flow cytometry (Annexin-V, 7-AAD), PC9. The following applies: PC9, NGI-1 10 μM for 2 or 5 days, or Tn 1 μM. The method, then:
Analysis of apoptosis susceptibility in A549 and PC9 NSCLC cell lines followed treatment with NGI-1 10 μM or Tn 1 μM for 2 days was done by flow cytometry after staining the cells with Annexin-V (early apoptosis) and 7-AAD (viability dye). […] FIG. 9C: Western blot of BIP protein for A549 and PC9 cells after treatment with 10 μM NGI-1 for 6, 12 or 24 h. The expression of GAPDH was used as a loading control.

A further assay concerns EGFR. Nature of the assay: Surface biotinylation of EGFR, H3255 cells. The following applies: H3255, 10 μM NGI-1, 24 h. The method, then:
FIGS. 3A-3F illustrate the finding that NGI-1 disrupts EGFR glycosylation and cell surface expression. FIG. 3A illustrates EGFR western blots from H3255 treated with or without 10 μM NGI-1 for 24 h. Molecular weight size shifts are compared to PNGase digestion and tunicamycin treatment alone. FIG. 3B illustrates EGFR localization in H3255 cells after 24 h 10 μM NGI-1 treatment analyzed by western blot. Plasma membrane proteins present on the surface of H3255 cells were biotinylated using a non-permeable form of biotin, sulfo-NHS—SS-biotin, and precipitated by streptavidin agarose beads. Biotin-labeled plasma membrane proteins and the fraction of non-biotinylated proteins were subjected to SDS-PAGE and analyzed by western blot against EGFR. FIG. 3C illustrates EGFR localization in H3255 cells after 24 h 10 μM NGI-1 treatment analyzed by confocal microscopy. H3255 cells were subjected to immunofluorescence for EGFR protein (red) counterstained with (CRT; green) and colocalization was determined by confocal microscopy. Nuclei were counterstained with ToPro3 (cyan). […] Bar, 10 μm. FIG. 3D illustrates quantification of colocalization using Image J Colormap Software. […] ITB1 localization after 10 μM NGI-1 for 48 h analyzed by (FIG. 3E) surface biotinylation (FIG. 3F) confocal microscopy (green). […]

Assay [2] deals with PC9 cells. Nature of the assay: MTT proliferation assay, PC9. The following applies: PC9, 10 μM NGI-1, after 3 days, p<0.001. How it is done: FIGS. 4A-4H illustrate the finding that NGI-1 blocks RTK driven proliferation. FIG. 4A illustrates western blot analysis of EGFR phosphorylation (Y1173) and gel mobility in PC9 (EGFR-mutant) and A549 (k-ras mutant) NSCLC cells after 10 μM NGI-1 treatment for 24 h. […] Actin expression was used as a control for protein loading. FIG. 4B illustrates MTT assays results of PC9 following treatment with 10 μM NGI-1 or 1 μM tunicamycin for a total of 5 d. Relative proliferation id reported in fold increase from day 0. FIG. 4C illustrates MTT assays results of A549 following treatment with 10 μM NGI-1 or 1 μM tunicamycin for a total of 5 d. Relative proliferation id reported in fold increase from day 0. FIG. 4D illustrates protein phosphorylation profiles of PC9 cells analyzed by phospho-protein array to assess the response of PC9 to 10 μM NGI-1 for 24 h. FIG. 4E illustrates protein phosphorylation profiles of A549 cells analyzed by phospho-protein array to assess the response of A549 to 10 μM NGI-1 for 24 h. […]
Growth rates were determined by CellTiter 96 NonRadioactive Cell Proliferation Assay (Promega; Madison, Wis. USA) according to the manufacturer's directions. […] Cell numbers were estimated after 0, 3, and 5 days by adding MTT [(3-(4,5-Dimethylthiazol-2-yl)-2,5-diphenyltetrazolium bromide] reagent to the wells 4 hours before taking the spectrophotometric reading (absorbance at 570 nm).

Each structure is given as a SMILES string.

On to `Cc1cnc(NC(=O)c2cc(S(=O)(=O)N(C)C)ccc2N2CCCC2)s1` [NGI-1, 5-(N,N-Dimethylsulfamoyl)-N-(5-methylthiazol-2-yl)-2-(pyrrolidin-1-yl)benzamide], for which the induction of apoptosis result with PC9 cells [1] is given as “did not induce apoptosis”. The “EGFR distribution, biotinylated vs non-biotinylated fraction” value in the assay with EGFR is on record as “predominantly found in the non-biotinylated intracellular fraction”. In the assay on PC9 cells [2], the “reduction of cell proliferation, MTT” value was “more than 90%”.

The record behind these values is patent US11219625B2, “Inhibitors of N-linked glycosylation and methods using same” (YALE UNIVERSITY, priority 2015, dated 2022).
